Laboratory results reported in patent US12077503B2, “Substituted cyclic amides and their use as herbicides” (FMC CORPORATION, priority 2015, dated 2024).

Columns and labels:
Type in all cases: in vivo
Kochia (Kochia scoparia) [1] = experiment: Test A preemergence
Outline: (§1)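 Ratings of 0 (no effect) to 100 (complete control) come from visual comparison with untreated controls roughly 10 d after treatment. Test chemicals, formulated in a non-phytotoxic solvent mixture with surfactant, were applied either as a preemergence directed soil spray on seeded soil or postemergence to one- to two-leaf plants 2 to 10 cm tall.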

[2] = test system: barnyardgrass (Echinochloa crus-galli); experiment: Test A preemergence
Outline: as §1

[3] = test system: giant foxtail (Setaria faberii); experiment: Test A preemergence
Outline: as §1

[4] = test system: pigweed (Amaranthus retroflexus); experiment: Test A preemergence
[5] = test system: ragweed (common ragweed, Ambrosia elatior); experiment: Test A preemergence
Outline: as §1

[6] = test system: ryegrass, Italian (Italian ryegrass, Lolium multiflorum); experiment: Test A preemergence
Outline: as §1

[7] = test system: Galium (catchweed bedstraw, Galium aparine); experiment: Test A postemergence; conditions: for Plant response rating, Galium: postemergence, 0 to 100 scale (0 no effect, 100 complete control)
Outline: as §1

Kochia (Kochia scoparia) [8] = experiment: Test A postemergence; conditions: for Plant response rating, Kochia: postemergence, 0 to 100 scale (0 no effect, 100 complete control)
Outline: as §1

[9] = test system: barnyardgrass (Echinochloa crus-galli); experiment: Test A postemergence; conditions: for Plant response rating, Barnyardgrass: postemergence, 0 to 100 scale (0 no effect, 100 complete control)
Outline: as §1

[10] = test system: blackgrass (Alopecurus myosuroides); experiment: Test A postemergence; conditions: for Plant response rating, Blackgrass: postemergence, 0 to 100 scale (0 no effect, 100 complete control)
Outline: as §1

corn (Zea mays) = experiment: Test A postemergence; conditions: for Plant response rating, Corn: postemergence, 0 to 100 scale (0 no effect, 100 complete control)
Outline: as §1

[11] = test system: giant foxtail (Setaria faberii); experiment: Test A postemergence; conditions: for Plant response rating, Foxtail, Giant: postemergence, 0 to 100 scale (0 no effect, 100 complete control)
Outline: as §1

[12] = test system: pigweed (Amaranthus retroflexus); experiment: Test A postemergence; conditions: for Plant response rating, Pigweed: postemergence, 0 to 100 scale (0 no effect, 100 complete control)
Outline: as §1

[13] = test system: ragweed (common ragweed, Ambrosia elatior); experiment: Test A postemergence; conditions: for Plant response rating, Ragweed: postemergence, 0 to 100 scale (0 no effect, 100 complete control)
Outline: as §1

[14] = test system: ryegrass, Italian (Italian ryegrass, Lolium multiflorum); experiment: Test A postemergence; conditions: for Plant response rating, Ryegrass, Italian: postemergence, 0 to 100 scale (0 no effect, 100 complete control)
Outline: as §1

[15] = test system: wheat (Triticum aestivum); experiment: Test A postemergence; conditions: for Plant response rating, Wheat: postemergence, 0 to 100 scale (0 no effect, 100 complete control)
Outline: as §1

[16] = test system: barnyardgrass (Echinochloa crus-galli); experiment: Test B flooded paddy test; conditions: for Plant response rating, Barnyardgrass: Flood, 250 g ai/ha, 0 to 100 scale where 0 is no effect and 100 is complete control, 13 to 15 d
Outline: (§2)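 Rating scale 0–100 (visual, vs untreated controls) after a 13–15 d greenhouse period; application to the flood layer, 3 cm above soil and maintained; plants at 2-leaf stage when treated.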

[17] = test system: ducksalad (Heteranthera limosa); experiment: Test B flooded paddy test; conditions: for Plant response rating, Ducksalad: Flood, 250 g ai/ha, 0 to 100 scale where 0 is no effect and 100 is complete control, 13 to 15 d
Outline: as §2

rice (Oryra sativa) = experiment: Test B flooded paddy test; conditions: for Plant response rating, Rice: Flood, 250 g ai/ha, 0 to 100 scale where 0 is no effect and 100 is complete control, 13 to 15 d
Outline: as §2

[18] = test system: sedge, umbrella (small-flower umbrella sedge, Cyperus difformis); experiment: Test B flooded paddy test; conditions: for Plant response rating, Sedge, Umbrella: Flood, 250 g ai/ha, 0 to 100 scale where 0 is no effect and 100 is complete control, 13 to 15 d
Outline: as §2

[19] = 125 g ai/ha, Preemergence, visual injury after approximately 10 d, 0 to 100 scale where 0 is no effect and 100 is complete control
[20] = 500 g ai/ha, preemergence, 0 to 100 scale, 0 = no effect, 100 = complete control
[21] = 125 g ai/ha, visual rating after approx. 10 d
[22] = 500 g ai/ha, visual injury, approx. 10 d
[23] = 125 g ai/ha, preemergence, visual rating after approx. 10 d, 0 to 100 scale where 0 is no effect and 100 is complete control
[24] = 125 g ai/ha, visual injury after approximately 10 d
[25] = Galium, post-emergence, 240 h, read-out: Plant response rating, Galium
[26] = Bassia scoparia, post-emergence, 240 h, read-out: Plant response rating, Kochia
[27] = Echinochloa crus-galli, post-emergence, 240 h, read-out: Plant response rating, Barnyardgrass
[28] = Alopecurus myosuroides, post-emergence, 240 h, read-out: Plant response rating, Blackgrass
[29] = Zea mays, post-emergence, 240 h, read-out: Plant response rating, Corn
[30] = Setaria faberi, post-emergence, 240 h, read-out: Plant response rating, Foxtail, Giant
[31] = Amaranthus retroflexus, post-emergence, 240 h, read-out: Plant response rating, Pigweed
[32] = Ambrosia artemisiifolia, post-emergence, 240 h, read-out: Plant response rating, Ragweed
[33] = Lolium multiflorum, post-emergence, 240 h, read-out: Plant response rating, Ryegrass, Italian
[34] = Triticum aestivum, post-emergence, 240 h, read-out: Plant response rating, Wheat

SMILES: Cc1cccc(C2CN(C)C(=O)C2C(=O)Nc2ccccc2S(C)(=O)=O)c1 (stereo not drawn) [Compound 668]
- Plant response rating, Kochia (Kochia (Kochia scoparia) [1]; [19]): 20
- Plant response rating, Kochia (Kochia (Kochia scoparia) [1]; [20]): 70
- Plant response rating, Barnyardgrass [2, 19]: 90
- Plant response rating, Barnyardgrass [2, 20]: 90
- Plant response rating, Foxtail, Giant [3, 19]: 90
- Plant response rating, Foxtail, Giant [3, 20]: 100
- Plant response rating, Pigweed [4, 19]: 20
- Plant response rating, Pigweed [4, 20]: 50
- Plant response rating, Ragweed [5, 19]: 0
- Plant response rating, Ragweed [5, 20]: 40
- Plant response rating, Ryegrass, Italian [6, 19]: 0
- Plant response rating, Ryegrass, Italian [6, 20]: 0
- Plant response rating, Galium [7, 21]: 20
- Plant response rating, Galium [7, 22]: 70
- Plant response rating, Kochia (Kochia (Kochia scoparia) [8]; [21]): 20
- Plant response rating, Kochia (Kochia (Kochia scoparia) [8]; [22]): 20
- Plant response rating, Barnyardgrass [9, 21]: 90
- Plant response rating, Barnyardgrass [9, 22]: 90
- Plant response rating, Blackgrass [10, 21]: 60
- Plant response rating, Blackgrass [10, 22]: 70
- Plant response rating, Corn (corn (Zea mays); [21]): 20
- Plant response rating, Corn (corn (Zea mays); [22]): 80
- Plant response rating, Foxtail, Giant [11, 21]: 90
- Plant response rating, Foxtail, Giant [11, 22]: 90
- Plant response rating, Pigweed [12, 21]: 0
- Plant response rating, Pigweed [12, 22]: 0
- Plant response rating, Ragweed [13, 21]: 0
- Plant response rating, Ragweed [13, 22]: 0
- Plant response rating, Ryegrass, Italian [14, 21]: 0
- Plant response rating, Ryegrass, Italian [14, 22]: 70
- Plant response rating, Wheat [15, 21]: 20
- Plant response rating, Wheat [15, 22]: 60
- Plant response rating, Barnyardgrass [16]: 70
- Plant response rating, Ducksalad [17]: 98
- Plant response rating, Rice (rice (Oryra sativa)): 0
- Plant response rating, Sedge, Umbrella [18]: 0

SMILES: O=C(Nc1ccccc1F)C1C(=O)N(CC2CC2)CC1c1cccc(C(F)(F)F)c1 (stereo not drawn) [Compound 682]
- Plant response rating, Kochia (Kochia (Kochia scoparia) [1]; [19]): 0
- Plant response rating, Kochia (Kochia (Kochia scoparia) [1]; [20]): 0
- Plant response rating, Barnyardgrass [2, 19]: 0
- Plant response rating, Barnyardgrass [2, 20]: 0
- Plant response rating, Foxtail, Giant [3, 19]: 90
- Plant response rating, Foxtail, Giant [3, 20]: 90
- Plant response rating, Pigweed [4, 23]: 0
- Plant response rating, Pigweed [4, 20]: 0
- Plant response rating, Ragweed [5, 23]: 0
- Plant response rating, Ragweed [5, 20]: 0
- Plant response rating, Ryegrass, Italian [6, 23]: 20
- Plant response rating, Ryegrass, Italian [6, 20]: 30
- Plant response rating, Galium [7, 24]: 0
- Plant response rating, Galium [7, 22]: 0
- Plant response rating, Kochia (Kochia (Kochia scoparia) [8]; [24]): 0
- Plant response rating, Kochia (Kochia (Kochia scoparia) [8]; [22]): 0
- Plant response rating, Barnyardgrass [9, 21]: 0
- Plant response rating, Barnyardgrass [9, 22]: 20
- Plant response rating, Blackgrass [10, 21]: 0
- Plant response rating, Blackgrass [10, 22]: 0
- Plant response rating, Corn (corn (Zea mays); [24]): 0
- Plant response rating, Corn (corn (Zea mays); [22]): 0
- Plant response rating, Foxtail, Giant [11, 24]: 20
- Plant response rating, Foxtail, Giant [11, 22]: 80
- Plant response rating, Pigweed [12, 24]: 0
- Plant response rating, Pigweed [12, 22]: 0
- Plant response rating, Ragweed [13, 24]: 0
- Plant response rating, Ragweed [13, 22]: 0
- Plant response rating, Ryegrass, Italian [14, 24]: 0
- Plant response rating, Ryegrass, Italian [14, 22]: 0
- Plant response rating, Wheat [15, 24]: 0
- Plant response rating, Wheat [15, 22]: 20
- Plant response rating, Barnyardgrass [16]: 0
- Plant response rating, Ducksalad [17]: 0
- Plant response rating, Rice (rice (Oryra sativa)): 0
- Plant response rating, Sedge, Umbrella [18]: 0

SMILES: COc1ccc([C@H]2CN(C)C(=O)[C@@H]2C(=O)Nc2ccccc2SC)cc1F [Compound 1022]
- pest or weed control at 500 g/ha (Kochia (Kochia scoparia) [1]; Bassia scoparia, pre-emergence, 240 h, read-out: Kochia plant response rating): 80%
- pest or weed control at 125 g/ha (Kochia (Kochia scoparia) [1]; Bassia scoparia, pre-emergence, 240 h, read-out: Kochia plant response rating (0 to 100 scale, 0 is no effect, 100 is complete control)): 70%
- pest or weed control at 500 g/ha ([2]; Echinochloa crus-galli, pre-emergence, 240 h, read-out: Barnyardgrass plant response rating): 100%
- pest or weed control at 125 g/ha ([2]; Echinochloa crus-galli, pre-emergence, 240 h, read-out: Barnyardgrass plant response rating (0 to 100 scale, 0 is no effect, 100 is complete control)): 60%
- pest or weed control at 500 g/ha ([3]; Setaria faberi, pre-emergence, 240 h, read-out: Foxtail, Giant plant response rating): 100%
- pest or weed control at 125 g/ha ([3]; Setaria faberi, pre-emergence, 240 h, read-out: Foxtail, Giant plant response rating (0 to 100 scale, 0 is no effect, 100 is complete control)): 100%
- pest or weed control at 500 g/ha ([4]; Amaranthus retroflexus, pre-emergence, 240 h, read-out: Pigweed plant response rating): 70%
- pest or weed control at 125 g/ha ([4]; Amaranthus retroflexus, pre-emergence, 240 h, read-out: Pigweed plant response rating (0 to 100 scale, 0 is no effect, 100 is complete control)): 30%
- pest or weed control at 500 g/ha ([5]; Ambrosia artemisiifolia, pre-emergence, 240 h, read-out: Ragweed plant response rating): 0%
- pest or weed control at 125 g/ha ([5]; Ambrosia artemisiifolia, pre-emergence, 240 h, read-out: Ragweed plant response rating (0 to 100 scale, 0 is no effect, 100 is complete control)): 0%
- pest or weed control at 500 g/ha ([6]; Lolium multiflorum, pre-emergence, 240 h, read-out: Ryegrass, Italian plant response rating): 50%
- pest or weed control at 125 g/ha ([6]; Lolium multiflorum, pre-emergence, 240 h, read-out: Ryegrass, Italian plant response rating (0 to 100 scale, 0 is no effect, 100 is complete control)): 0%
- pest or weed control at 125 g/ha [7, 25]: 30%
- pest or weed control at 500 g/ha [7, 25]: 50%
- pest or weed control at 125 g/ha (Kochia (Kochia scoparia) [8]; [26]): 30%
- pest or weed control at 500 g/ha (Kochia (Kochia scoparia) [8]; [26]): 60%
- pest or weed control at 125 g/ha [9, 27]: 60%
- pest or weed control at 500 g/ha [9, 27]: 100%
- pest or weed control at 125 g/ha [10, 28]: 0%
- pest or weed control at 500 g/ha [10, 28]: 0%
- plant injury at 125 g/ha (corn (Zea mays); [29]): 0%
- plant injury at 500 g/ha (corn (Zea mays); [29]): 20%
- pest or weed control at 125 g/ha [11, 30]: 50%
- pest or weed control at 500 g/ha [11, 30]: 70%
- pest or weed control at 125 g/ha [12, 31]: 0%
- pest or weed control at 500 g/ha [12, 31]: 0%
- pest or weed control at 125 g/ha [13, 32]: 0%
- pest or weed control at 500 g/ha [13, 32]: 0%
- pest or weed control at 125 g/ha [14, 33]: 0%
- pest or weed control at 500 g/ha [14, 33]: 30%
- plant injury at 125 g/ha [15, 34]: 0%
- plant injury at 500 g/ha [15, 34]: 30%
- pest or weed control at 250 g/ha ([16]; Echinochloa crus-galli, read-out: Barnyardgrass plant response rating): 0%
- pest or weed control at 250 g/ha ([17]; Heteranthera limosa, read-out: Ducksalad plant response rating): 75%
- pest or weed control at 250 g/ha (rice (Oryra sativa); Oryza sativa, read-out: Rice plant response rating): 0%
- pest or weed control at 250 g/ha ([18]; Cyperus difformis, read-out: Sedge, Umbrella plant response rating): 0%
